Measured values reported in BindingDB's records for doi:10.1016/j.chembiol.2007.03.013 (Portland State University, 2007).

Assays:
[1] = target: T1, 3-oxoacyl-[acyl-carrier-protein] synthase 3 (Escherichia coli, UniProt C3TDZ2); assay: FabH Enzyme Assay; conditions: pH 7; 37 °C
T1 sequence (C3TDZ2 whole entry): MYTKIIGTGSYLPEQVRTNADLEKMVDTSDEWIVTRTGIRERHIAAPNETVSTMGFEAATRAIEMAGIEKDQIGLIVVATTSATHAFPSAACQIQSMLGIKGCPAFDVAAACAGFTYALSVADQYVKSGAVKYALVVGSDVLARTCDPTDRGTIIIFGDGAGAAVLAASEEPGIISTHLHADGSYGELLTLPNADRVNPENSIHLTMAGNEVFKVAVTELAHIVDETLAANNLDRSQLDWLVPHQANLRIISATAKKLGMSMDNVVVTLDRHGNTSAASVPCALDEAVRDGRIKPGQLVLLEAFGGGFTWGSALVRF
Protocol: (§1) Escherichia coli FabH assays were carried out using standard coupled trichloroacetic acid precipitation assay to determine the rate formation of radiolabeled 3-ketoacyl-ACP from malonyl-ACP. Mycobacterium tuberculosis FabH assay was done by sustituting malonyl-CoA for MACP.

[2] = target: T2, 3-oxoacyl-[acyl-carrier-protein] synthase 3 (Mycobacterium tuberculosis (strain CDC 1551 / Oshkosh), UniProt P9WNG2); assay: FabH Enzyme Assay; conditions: pH 7; 37 °C
T2 sequence (P9WNG2 whole entry): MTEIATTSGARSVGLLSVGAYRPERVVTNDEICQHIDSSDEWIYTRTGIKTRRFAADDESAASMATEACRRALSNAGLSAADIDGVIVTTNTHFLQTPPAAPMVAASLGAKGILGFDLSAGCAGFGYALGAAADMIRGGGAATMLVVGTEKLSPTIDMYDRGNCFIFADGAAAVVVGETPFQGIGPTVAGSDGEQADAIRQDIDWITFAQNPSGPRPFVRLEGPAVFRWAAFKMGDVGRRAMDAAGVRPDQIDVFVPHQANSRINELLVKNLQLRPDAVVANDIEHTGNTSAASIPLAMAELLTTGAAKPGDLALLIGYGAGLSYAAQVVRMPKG
Protocol: as §1

CCCCSSCCNC(=O)CCNC(=O)C(O)C(C)(C)OP(=O)(O)OP(=O)(O)OCC1OC(n2cnc3c(N)ncnc32)C(O)C1OP(=O)(O)O (stereo not drawn) [Butyl-CoA disulfide 2]
IC50 [1]: > 300 µM | IC50 [2]: > 300 µM

CCCCCCCCCCSSCCNC(=O)CCNC(=O)C(O)C(C)(C)OP(=O)(O)OP(=O)(O)OCC1OC(n2cnc3c(N)ncnc32)C(O)C1OP(=O)(O)O (stereo not drawn) [Decyl-CoA disulfide 5]
IC50 [1]: > 300 µM | IC50 [2]: 1.2 µM

CSSCCNC(=O)CCNC(=O)C(O)C(C)(C)OP(=O)(O)OP(=O)(O)OCC1OC(n2cnc3c(N)ncnc32)C(O)C1OP(=O)(O)O (stereo not drawn) [Methyl-CoA disulfide 1]
IC50 [1]: 57.1 µM | IC50 [2]: > 300 µM

CCCCCCCCSSCCNC(=O)CCNC(=O)C(O)C(C)(C)OP(=O)(O)OP(=O)(O)OCC1OC(n2cnc3c(N)ncnc32)C(O)C1OP(=O)(O)O (stereo not drawn) [Octyl-CoA disulfide 4]
IC50 [1]: > 300 µM | IC50 [2]: 30.1 µM
